From article PMC10891214, “Effects of food and ethnicity on the pharmacokinetics of venadaparib, a next-generation PARP inhibitor, in healthy Korean, Caucasian, and Chinese male subjects” (Investigational New Drugs, 2023)

Legend:
PARP1 = test system: PARP1; design: method as in PMID 36808277; settings: cited from earlier work
PARP2 = test system: PARP2; design: method as in PMID 36808277; settings: cited from earlier work
PARP3 = test system: PARP3; design: method as in PMID 36808277; settings: cited from earlier work
PARP5 = test system: PARP5; design: method as in PMID 36808277; settings: cited from earlier work
[1] = test system: poly(ADP-ribose) formation; design: method as in PMID 36808277, PMID 24162931, PMID 33657415; settings: cited from earlier work
PARP = test system: PARP; design: method as in PMID 36808277, PMID 24162931, PMID 33657415; settings: cited from earlier work
[2] = test system: cancer cell lines with BRCA mutations; design: method as in PMID 36808277; settings: cited from earlier work
[3] = test system: patient-derived xenograft; design: method as in PMID 36808277; settings: patient-derived xenograft mouse model; cited from earlier work
[4] = design: method as in data on file (NCT03317743); settings: ref data on file (NCT03317743), cited from earlier work
cytochrome P450 3A4 = test system: cytochrome P450 3A4; design: method as in data on file; settings: in vitro phenotyping study; ref data on file; cited from earlier work
[5] = Safety assessment (adverse events, vital signs, 12-lead ECGs) after a single administration of venadaparib 80 mg
Description: Safety was assessed in all subjects who received the study drug at least once throughout the study based on adverse event (AE) monitoring, physical examinations, vital signs, 12-lead electrocardiograms (ECGs), and clinical laboratory tests.
To support the evaluation of the relationship between concentration and QT/corrected QT (QTc) interval effects in the early stage of the clinical development of venadaparib, triplicate ECG tests were conducted in the middle of the study [22]. A triplicate ECG test was conducted in three Caucasian and five Chinese subjects after the protocol amendment. […] Fridericia’s corrected QT interval (QTcF) was collected, along with the existing ventricular rate, PR interval, QRS duration, QT interval, and QTcB. Triplicate ECGs were measured three times at intervals of 30 s to 2 min at each time point after at least 5 min of resting, and the median value of the three measurements was considered a representative value. QTcF and QTcB were calculated using the following population-derived correction equations: QTcF = QT/RR^0.33 and QTcB = QT/RR^0.5 [22].

[6] = Caucasian, fasted state (N = 12)

In the case of O=C(c1cc(Cc2n[nH]c(=O)c3ccccc23)ccc1F)N1CC(CNC2CC2)C1 [venadaparib], the “IC50 compared with those of olaparib” value (PARP1) is listed as “similar”, the “IC50 compared with those of olaparib” value (PARP2) is listed as “similar” and the “IC50 compared with those of olaparib” value (PARP3) is listed as “higher”. For the same compound, the “IC50 compared with those of olaparib” value (PARP5) was “higher”, the “Activity of inhibiting poly(ADP-ribose) formation, relative to talazoparib” value [1] was “comparable” and the “Activity of trapping PARP, relative to talazoparib” value (PARP) was “comparable”. For the same compound, the “Antitumor potency, fold higher than that of olaparib” value [2] was 40–440 fold, the “Tumor growth inhibition rate” value [3] was 131.0–135.2% and the “Mean elimination half-life (t1/2)” value ([4]; Korean patients with advanced solid tumors, 2–240 mg/day) was 7 to 13 h. For the same compound, the “Safety and tolerability of multiple three-week administrations” value ([4]; dose range 2–240 mg/day, Korean patients) was “safe and well-tolerated”, the “Relationship of systemic exposure to dose” value ([4]; dose range 2–240 mg/day) was “dose-proportional” and the “Enzyme primarily metabolizing the drug” value (cytochrome P450 3A4) was “cytochrome P450 3A4”. For the same compound, the “Changes in vital signs or 12-lead ECGs” value ([5]; 80 mg single dose) was “No clinically significant changes”, the “Serious AEs” value ([5]; 80 mg single dose, all groups) was “No serious AEs were observed” and the “Severity of TEAEs” value ([5]; 80 mg single dose, except contact dermatitis (moderate) in one subject, fed state) was “mild”. For the same compound, the “Effect of plasma concentrations on QTcF and QTcB values, including changes from the baseline” value ([5]; 80 mg single dose, triplicate ECG subset) was “did not prolong”, the “Safety and tolerability of a single dose” value ([5]; 80 mg, fasted and fed states, healthy subjects) was “safe and well-tolerated” and the “Blood bilirubin increased: number of events” value [5, 6] was 1. The “Chalazion: number of events” value [5, 6] was 1, the “Chalazion: number of subjects (percentage of subjects)” value [5, 6] was 1 (8.3) and the “Eye disorders: number of events” value [5, 6] was 1. For the same compound, the “Eye disorders: number of subjects (percentage of subjects)” value [5, 6] was 1 (8.3), the “Gastrointestinal disorders: number of events” value [5, 6] was 1 and the “Gastrointestinal disorders: number of subjects (percentage of subjects)” value [5, 6] was 1 (8.3). For the same compound, the “Hyperuricaemia: number of events” value [5, 6] was 1, the “Investigations: number of events” value [5, 6] was 1 and the “Metabolism and nutrition disorders: number of events” value [5, 6] was 1. The “Metabolism and nutrition disorders: number of subjects (percentage of subjects)” value [5, 6] was 1 (8.3), the “Nausea: number of events” value [5, 6] was 1 and the “Nausea: number of subjects (percentage of subjects)” value [5, 6] was 1 (8.3). The “Blood and lymphatic system disorders: number of events” value ([5]; Caucasian, fed state (N = 12)) was 1, the “Blood and lymphatic system disorders: number of subjects (percentage of subjects)” value ([5]; Caucasian, fed state (N = 12)) was 1 (8.3) and the “Blood bilirubin increased: number of events” value ([5]; Caucasian, fed state (N = 12)) was 1. For the same compound, the “Blood bilirubin increased: number of subjects (percentage of subjects)” value ([5]; Caucasian, fed state (N = 12)) was 1 (8.3), the “Decreased appetite: number of events” value ([5]; Caucasian, fed state (N = 12)) was 1 and the “Decreased appetite: number of subjects (percentage of subjects)” value ([5]; Caucasian, fed state (N = 12)) was 1 (8.3). For the same compound, the “Dermatitis contact: number of events” value ([5]; Caucasian, fed state (N = 12)) was 1, the “Dermatitis contact: number of subjects (percentage of subjects)” value ([5]; Caucasian, fed state (N = 12)) was 1 (8.3) and the “Eosinophilia: number of events” value ([5]; Caucasian, fed state (N = 12)) was 1. For the same compound, the “Eosinophilia: number of subjects (percentage of subjects)” value ([5]; Caucasian, fed state (N = 12)) was 1 (8.3), the “Epigastric discomfort: number of events” value ([5]; Caucasian, fed state (N = 12)) was 1 and the “Epigastric discomfort: number of subjects (percentage of subjects)” value ([5]; Caucasian, fed state (N = 12)) was 1 (8.3). For the same compound, the “Gastrointestinal disorders: number of events” value ([5]; Caucasian, fed state (N = 12)) was 1, the “General disorders and administration site conditions: number of events” value ([5]; Caucasian, fed state (N = 12)) was 1 and the “General disorders and administration site conditions: number of subjects (percentage of subjects)” value ([5]; Caucasian, fed state (N = 12)) was 1 (8.3). For the same compound, the “Headache: number of events” value ([5]; Caucasian, fed state (N = 12)) was 1, the “Headache: number of subjects (percentage of subjects)” value ([5]; Caucasian, fed state (N = 12)) was 1 (8.3) and the “Hyperuricaemia: number of events” value ([5]; Caucasian, fed state (N = 12)) was 1. For the same compound, the “Hyperuricaemia: number of subjects (percentage of subjects)” value ([5]; Caucasian, fed state (N = 12)) was 1 (8.3), the “Investigations: number of events” value ([5]; Caucasian, fed state (N = 12)) was 1 and the “Investigations: number of subjects (percentage of subjects)” value ([5]; Caucasian, fed state (N = 12)) was 1 (8.3). The “Lethargy: number of events” value ([5]; Caucasian, fed state (N = 12)) was 1, the “Lethargy: number of subjects (percentage of subjects)” value ([5]; Caucasian, fed state (N = 12)) was 1 (8.3) and the “Metabolism and nutrition disorders: number of events” value ([5]; Caucasian, fed state (N = 12)) was 2. For the same compound, the “Metabolism and nutrition disorders: number of subjects (percentage of subjects)” value ([5]; Caucasian, fed state (N = 12)) was 2 (16.7), the “Nervous system disorders: number of events” value ([5]; Caucasian, fed state (N = 12)) was 2 and the “Nervous system disorders: number of subjects (percentage of subjects)” value ([5]; Caucasian, fed state (N = 12)) was 2 (16.7). The “Skin and subcutaneous tissue disorders: number of events” value ([5]; Caucasian, fed state (N = 12)) was 1 and the “Skin and subcutaneous tissue disorders: number of subjects (percentage of subjects)” value ([5]; Caucasian, fed state (N = 12)) was 1 (8.3).
